# Source: patent US8901159B2, “Inhibition of inflammation by simultaneous blockade of multiple prostanoid receptors” (Allergan, Inc., priority 2010, dated 2014)
# Legend:
# [1] = molecular target: T1, human prostanoid DP1 receptor (Homo sapiens, UniProt Q13258); test: PG antagonist activity, Ca2+ signal in human recombinant prostanoid receptor stable cell line; assay type: cell-based; conditions: parameter and unit not given
# T1 construct: expressed in transfected cells
# T1 sequence (Q13258 1-359): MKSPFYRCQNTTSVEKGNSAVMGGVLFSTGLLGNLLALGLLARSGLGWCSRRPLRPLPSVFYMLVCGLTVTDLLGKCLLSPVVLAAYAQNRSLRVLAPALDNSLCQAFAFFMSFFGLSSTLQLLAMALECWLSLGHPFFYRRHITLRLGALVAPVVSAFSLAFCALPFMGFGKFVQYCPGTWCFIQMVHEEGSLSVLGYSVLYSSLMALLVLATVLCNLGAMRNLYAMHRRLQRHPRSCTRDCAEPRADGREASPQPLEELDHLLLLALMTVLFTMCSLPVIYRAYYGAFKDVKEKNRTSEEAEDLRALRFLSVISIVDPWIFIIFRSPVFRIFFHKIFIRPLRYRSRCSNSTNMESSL
# Method: (§1) The above compounds were tested for PG antagonist activity as follows using human recombinant prostanoid receptor (DP1, EP1-4, FP, IP and TP) stable cell lines:
# (§2) In order to measure the response of Gs and Gi coupled prostanoid receptors as a Ca^2+ signal, chimeric G protein cDNAs were used. Stable cell lines over-expressing human prostanoid DP1, EP1-4, FP, IP, and TP receptors were established as described in U.S. Ser. No. 61/410,153.
# [2] = molecular target: T2, human prostanoid EP1 receptor (Homo sapiens, UniProt P34995); test: as above; assay type: cell-based; conditions: parameter and unit not given
# T2 construct: expressed in transfected cells
# T2 sequence (P34995 1-402): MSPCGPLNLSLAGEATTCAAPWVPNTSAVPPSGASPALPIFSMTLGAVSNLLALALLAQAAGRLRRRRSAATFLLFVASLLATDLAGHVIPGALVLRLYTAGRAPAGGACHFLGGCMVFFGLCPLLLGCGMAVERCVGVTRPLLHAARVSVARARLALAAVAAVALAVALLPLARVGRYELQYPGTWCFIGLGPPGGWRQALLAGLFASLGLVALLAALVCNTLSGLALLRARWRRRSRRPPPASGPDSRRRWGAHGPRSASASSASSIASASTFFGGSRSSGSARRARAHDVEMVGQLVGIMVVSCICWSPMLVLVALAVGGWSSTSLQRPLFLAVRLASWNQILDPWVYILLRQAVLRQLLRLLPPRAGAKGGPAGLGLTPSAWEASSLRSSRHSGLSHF
# Method: as §1, §2
# [3] = molecular target: T3, human prostanoid EP3 receptor (Homo sapiens, UniProt P43115); test: as above; assay type: cell-based; conditions: parameter and unit not given
# T3 construct: expressed in transfected cells
# T3 sequence (P43115 1-390): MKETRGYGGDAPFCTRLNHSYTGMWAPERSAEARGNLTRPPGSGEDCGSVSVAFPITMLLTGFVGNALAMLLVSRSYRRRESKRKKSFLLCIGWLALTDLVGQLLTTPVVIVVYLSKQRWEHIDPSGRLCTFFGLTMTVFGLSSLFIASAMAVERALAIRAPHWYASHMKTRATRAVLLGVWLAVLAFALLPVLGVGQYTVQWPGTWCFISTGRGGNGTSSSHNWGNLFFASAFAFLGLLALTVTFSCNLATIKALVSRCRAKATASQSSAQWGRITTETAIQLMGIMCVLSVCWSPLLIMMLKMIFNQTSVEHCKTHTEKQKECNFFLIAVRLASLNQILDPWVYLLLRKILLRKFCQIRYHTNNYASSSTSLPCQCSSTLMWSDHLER
# Method: as §1, §2
# [4] = molecular target: T4, human prostanoid EP4 receptor (Homo sapiens, UniProt P35408); test: as above; assay type: cell-based; conditions: parameter and unit not given
# T4 construct: expressed in transfected cells
# Method: as §1, §2
# [5] = molecular target: T5, human prostanoid FP receptor (Homo sapiens, UniProt P43088); test: as above; assay type: cell-based; conditions: parameter and unit not given
# T5 construct: expressed in transfected cells
# Method: as §1, §2
# [6] = molecular target: T6, human prostanoid IP receptor (Homo sapiens, UniProt P43119); test: as above; assay type: cell-based; conditions: parameter and unit not given
# T6 construct: expressed in transfected cells
# Method: as §1, §2
# [7] = molecular target: T7, human prostanoid TP receptor (Homo sapiens, UniProt P21731); test: as above; assay type: cell-based; conditions: parameter and unit not given
# T7 construct: expressed in transfected cells
# T7 sequence (P21731 1-343): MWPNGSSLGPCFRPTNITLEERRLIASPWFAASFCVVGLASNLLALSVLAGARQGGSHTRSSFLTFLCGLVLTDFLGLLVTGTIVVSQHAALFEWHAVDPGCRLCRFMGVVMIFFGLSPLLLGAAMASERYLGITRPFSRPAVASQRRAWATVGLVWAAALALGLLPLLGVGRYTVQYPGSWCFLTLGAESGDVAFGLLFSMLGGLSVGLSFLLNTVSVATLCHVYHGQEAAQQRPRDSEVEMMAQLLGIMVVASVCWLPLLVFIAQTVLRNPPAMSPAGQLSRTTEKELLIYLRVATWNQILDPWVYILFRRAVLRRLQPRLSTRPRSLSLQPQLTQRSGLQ
# Method: as §1, §2
# [8] = molecular target: T8, human prostanoid EP2 receptor (Homo sapiens, UniProt P43116); test: as above; assay type: cell-based; conditions: parameter and unit not given
# T8 construct: expressed in transfected cells
# Method: as §1, §2
# [9] = system: human recombinant prostanoid receptor (DP1, EP1-4, FP, IP and TP); conditions: stated in words; IUPHAR database referred to; cited from earlier work
# [10] = system: human recombinant prostanoid receptor (DP1, EP1-4, FP, IP and TP); test: Prostanoid receptor blockade profile stated in words; assay type: cell-based
# Method: as §1, §2
# [11] = system: Experimental autoimmune uveoretinitis (EAU); test: Rat Experimental Autoimmune Uveoretinitis (EAU) model; assay type: in vivo; conditions: FIG. 14
# [12] = system: laser-induced neovascularization (CNV); test: Rat laser-induced neovascularization (CNV) model; assay type: in vivo; conditions: formulated in 70% PEG, FIG. 15, vs vehicle, EXAMPLE 8, SC-51322 and their combination
# Method: The compound of Example 1 was also evaluated for activity in an in-vivo Rat laser-induced neovascularization (CNV) model.
# In this test, compounds were formulated in 70% polyethylene glycol (PEG). CNV is induced by laser burn.
# [13] = rat EAU, vs all of the comparators
# T4 sequence (P35408 whole entry): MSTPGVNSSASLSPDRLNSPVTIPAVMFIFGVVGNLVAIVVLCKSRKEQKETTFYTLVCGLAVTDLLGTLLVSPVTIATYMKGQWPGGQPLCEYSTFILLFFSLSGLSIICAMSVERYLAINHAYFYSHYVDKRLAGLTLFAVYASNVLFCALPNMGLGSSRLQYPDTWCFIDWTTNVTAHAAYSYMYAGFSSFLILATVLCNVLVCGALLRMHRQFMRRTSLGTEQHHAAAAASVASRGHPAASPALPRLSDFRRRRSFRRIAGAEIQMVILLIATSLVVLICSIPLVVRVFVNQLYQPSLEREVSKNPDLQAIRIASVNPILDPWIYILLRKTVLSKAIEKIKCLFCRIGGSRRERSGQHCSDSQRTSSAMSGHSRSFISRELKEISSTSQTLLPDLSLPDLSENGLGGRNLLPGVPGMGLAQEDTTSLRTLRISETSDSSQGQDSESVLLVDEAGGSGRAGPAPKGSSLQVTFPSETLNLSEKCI
# T5 sequence (P43088 whole entry): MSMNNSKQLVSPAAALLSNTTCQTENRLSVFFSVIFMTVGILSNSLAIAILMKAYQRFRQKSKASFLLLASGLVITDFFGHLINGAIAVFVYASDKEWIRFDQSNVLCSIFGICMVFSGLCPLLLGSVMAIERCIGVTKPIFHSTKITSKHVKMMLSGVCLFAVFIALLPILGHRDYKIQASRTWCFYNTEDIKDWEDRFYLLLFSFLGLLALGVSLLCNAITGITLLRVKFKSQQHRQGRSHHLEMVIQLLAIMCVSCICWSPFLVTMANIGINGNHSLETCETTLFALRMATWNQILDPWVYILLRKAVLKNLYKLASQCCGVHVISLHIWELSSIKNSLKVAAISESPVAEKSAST
# T6 sequence (P43119 whole entry): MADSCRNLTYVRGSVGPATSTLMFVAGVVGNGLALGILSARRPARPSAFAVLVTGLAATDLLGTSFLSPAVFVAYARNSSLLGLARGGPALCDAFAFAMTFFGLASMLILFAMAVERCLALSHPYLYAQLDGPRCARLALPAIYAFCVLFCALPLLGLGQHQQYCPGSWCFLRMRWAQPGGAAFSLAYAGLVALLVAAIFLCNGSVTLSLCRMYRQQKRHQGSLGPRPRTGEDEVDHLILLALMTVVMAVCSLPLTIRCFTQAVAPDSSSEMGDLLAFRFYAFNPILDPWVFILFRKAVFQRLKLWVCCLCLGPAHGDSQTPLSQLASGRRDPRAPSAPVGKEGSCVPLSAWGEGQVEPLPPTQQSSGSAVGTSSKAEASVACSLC
# T8 sequence (P43116 whole entry): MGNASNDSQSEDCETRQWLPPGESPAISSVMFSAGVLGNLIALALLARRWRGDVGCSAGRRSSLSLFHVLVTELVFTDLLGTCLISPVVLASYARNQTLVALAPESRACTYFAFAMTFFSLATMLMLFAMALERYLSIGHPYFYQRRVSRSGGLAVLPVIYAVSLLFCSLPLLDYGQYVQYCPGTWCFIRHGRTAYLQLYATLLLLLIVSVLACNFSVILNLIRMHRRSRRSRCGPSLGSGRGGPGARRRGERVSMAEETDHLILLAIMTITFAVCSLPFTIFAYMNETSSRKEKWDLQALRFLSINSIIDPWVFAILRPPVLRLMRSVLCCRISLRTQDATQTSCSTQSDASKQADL
DP (PG antagonist activity) [1],EP1 (PG antagonist activity) [2],EP3 (PG antagonist activity) [3],EP4 (PG antagonist activity) [4],FP (PG antagonist activity) [5],IP (PG antagonist activity) [6],TP (PG antagonist activity) [7],EP2 (PG antagonist activity) [8],Structure (SMILES),prostanoid receptor blockade profile of comparator [9],prostanoid receptor selectivity / blockade profile [10],"clinical score ([11]; rat EAU induced by M18 peptide, vs vehicle, EXAMPLE 8, SC-51322 and their combination)","amount of invasive cells in the aqueous humor [11, 13]","amount of protein in the aqueous humor [11, 13]",clinical score (angiostatic efficacy) [12]
55,1400,4700,160,25,2400,<1,,CCCCCCCCNC(=O)c1coc(C2C3CCC(O3)C2Cc2cc(F)ccc2CCC(=O)O)n1 (stereo not drawn) [Example 5],,,,,,
50,1750,,170,35,,<1,,O=C(O)CCc1ccc(F)cc1CC1C2CCC(O2)C1c1nc(C(=O)NCCCCC2CCCCC2)co1 (stereo not drawn) [Example 6],,,,,,
71,380,5500,60,59,,<1,,"O=C(O)/C=C/c1ccc(F)cc1C[C@@H]1C(c2nc(C(=O)NCCCCC3CCCCC3)co2)C2CC[C@H]1O2 (stereo partly drawn) [Example 1, (E)-3-(2R-{3R-[4-(4-Cyclohexyl-butylcarbamoyl)-oxazol-2-yl]-7-oxa-bicyclo[2.2.1]hept-2-ylmethyl}-4-fluoro-phenyl)-acrylic acid]",,,better clinical score than any of the comparators except the combination,lower amount,lower amount,better clinical score than any of the comparators except the combination

# Further lines, the compound ahead of its results:
Structure (SMILES),DP (PG antagonist activity) [1],EP1 (PG antagonist activity) [2],EP3 (PG antagonist activity) [3],EP4 (PG antagonist activity) [4],FP (PG antagonist activity) [5],IP (PG antagonist activity) [6],TP (PG antagonist activity) [7],EP2 (PG antagonist activity) [8],prostanoid receptor blockade profile of comparator [9],prostanoid receptor selectivity / blockade profile [10],"clinical score ([11]; rat EAU induced by M18 peptide, vs vehicle, EXAMPLE 8, SC-51322 and their combination)","amount of invasive cells in the aqueous humor [11, 13]","amount of protein in the aqueous humor [11, 13]",clinical score (angiostatic efficacy) [12]
"CCCCCCCCCNC(=O)c1coc(C2C3CC[C@@H](O3)[C@@H]2Cc2cc(F)ccc2CCC(=O)O)n1 (stereo partly drawn) [Example 4, 3-{2R-[3R-(4-Nonylcarbamoyl-oxazol-2-yl)-7-oxa-bicyclo[2.2.1]hept-2-ylmethyl]-4-fluoro-phenyl}-propionic acid]",17,660,4100,92,12,1900,<1,4300,,,,,,
O=C(CCSCc1ccco1)NNC(=O)N1Cc2ccccc2Oc2ccc(Cl)cc21 [SC-51322],,,,,,,,,"blocks the EP1 receptor, only",,,,,
CCCCCCCCNC(=O)c1coc(C2C3CCC(O3)C2Cc2cc(F)ccc2/C=C/C(=O)O)n1 (stereo not drawn) [Example 2],220,2000,,120,300,,<1,,,,,,,
"O=C(O)CCc1ccc(F)cc1C[C@H]1[C@@H]2CCC(O2)[C@H]1c1nc(C(=O)NCCCCC2CCCCC2)co1 [EXAMPLE 8, 3-(2-{(1S,2R,3S)-3-[4-(4-Cyclohexyl-butylcarbamoyl)-oxazol-2-yl]-7-oxa-bicyclo[2.2.1]hept-2-ylmethyl}-4-fluoro-phenyl)-propionic acid]",,,,,,,,,,"selective for DP1, EP4, FP and TP receptors",,,,
CCCCCCCCCNC(=O)c1coc(C2C3CCC(O3)C2Cc2cc(F)ccc2/C=C/C(=O)O)n1 (stereo not drawn) [Example 3],270,4100,,180,230,,<1,,,,,,,
